In patent publication US20220087983A1, “ACTIVATING PYRUVATE KINASE R” (FORMA Therapeutics, Inc., priority 2020, published 2022):
Where “and” joins values, the source holds several entries; their conditions need not be identical. Equal values may be shown once. Read-outs that look alike come from different tables or passages of the source.

Columns and labels:
[1] = target: T1, wt-PKR in mature human erythrocytes (Homo sapiens, UniProt P30613); test: Cell assay: PKR activation in human RBCs (Biovision Pyruvate Kinase Assay); assay type: cell-based
T1 construct: host or cells: purified human RBCs from donors
T1 sequence (P30613 whole entry): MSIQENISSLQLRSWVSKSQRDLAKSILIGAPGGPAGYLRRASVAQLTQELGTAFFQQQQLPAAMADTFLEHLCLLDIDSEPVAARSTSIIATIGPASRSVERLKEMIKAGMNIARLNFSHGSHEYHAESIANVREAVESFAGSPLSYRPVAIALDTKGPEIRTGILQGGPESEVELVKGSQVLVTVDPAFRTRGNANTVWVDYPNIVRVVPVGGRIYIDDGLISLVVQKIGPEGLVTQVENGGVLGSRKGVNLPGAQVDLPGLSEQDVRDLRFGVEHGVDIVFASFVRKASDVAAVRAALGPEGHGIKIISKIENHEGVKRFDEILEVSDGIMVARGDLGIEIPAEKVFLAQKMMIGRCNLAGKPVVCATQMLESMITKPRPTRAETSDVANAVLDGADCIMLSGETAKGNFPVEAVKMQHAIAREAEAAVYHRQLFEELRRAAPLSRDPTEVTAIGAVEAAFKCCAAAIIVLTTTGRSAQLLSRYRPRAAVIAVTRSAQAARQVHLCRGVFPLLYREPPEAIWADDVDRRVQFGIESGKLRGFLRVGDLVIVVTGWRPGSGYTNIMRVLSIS
Experimental: The activation of wt-PKR by Compound 1 in mature human erythrocytes ex vivo was evaluated in purified RBCs purchased from Research Blood Components. Cells treated with Compound 1 for 3 hr in glucose-containing media were washed, lysed, and assayed using a Biovision Pyruvate Kinase Assay (K709-100). The assay was repeated multiple times to account for donor-to-donor variability and the relatively narrow dynamic range.

[2] = Phase 1 SAD/MAD/food effect: plasma pharmacokinetics in healthy volunteers; assay type: in vivo, human
Text: This is a first-in-human (FIH), Phase 1 study of Compound 1 that will characterize the safety, PK, and PD of Compound 1 after a single dose and after repeated dosing first in healthy adult volunteers and then in adolescents or adults with sickle cell disease. Initially, a dose range of Compound 1 in single ascending dose (SAD) escalation cohorts will be explored in healthy subjects. Enrollment of healthy subjects into 2-week multiple ascending dose (MAD) escalation cohorts will be initiated once the safety and PK from at least two SAD cohorts is available to inform the doses for the 2-week MAD portion of the study. The MAD cohorts will then run in parallel to the single dose cohorts. A single dose cohort is planned to understand food effects (FE) on the PK of Compound 1. […] Multiple dose studies in SCD subjects will then be initiated upon completion of MAD studies in healthy volunteers. Compound 1 will be administered in 25 mg and 100 mg tablets delivered orally, prepared as described in Example 1, Step 7.
In this study, SAD/MAD cohorts are randomized (3 to 1) to receive Compound 1 or placebo (P). Compound 1 was evaluated first in 4 healthy SAD cohorts and 4 healthy MAD (14-day dosing period) cohorts. Based on the safety, and PK/PD profile from HS, Compound 1 is then evaluated in 1 SCD SAD cohort and 2 SCD MAD cohorts. Specifically, based on the safety and pharmacokinetic/pharmacodynamics (PK/PD) profile in healthy volunteer studies, Compound 1 is evaluated in patients (pts) with SCD, first in a single dose (SD or SAD) cohort and then in multiple-dose (MD or MAD) cohorts (14-day and 12-week). Safety assessments include AEs, vital signs, ECGs and laboratory parameters. PK/PD blood sampling was performed on Day 1 (SAD/MAD) and Day 14 (MAD) and up to 72 h after the last dose and at the end-of-study visit. PD parameters included 2,3-DPG, ATP, and p50 in all cohorts with additional PD studies (including oxygen scan) performed only in the SCD cohorts. PD parameters included 2,3-DPG, ATP, p50, RBC deformability with controlled deoxygenation and reoxygenation (Lorrca® oxygen scan) and varying osmolality (Lorrca® osmoscan)). To maintain study blind, pt identifiers were removed when needed.
Primary Outcome Measures: • 1. Incidence, frequency, and severity of adverse events (AEs) per CTCAE v5.0 of a single ascending dose and multiple ascending doses of Compound 1 in adult healthy volunteers and SCD patients. Incidence of abnormal laboratory test results (clinical chemistry, endocrine hematology, urinalysis). Change from baseline in vital signs (blood pressure, respiratory rate, heart rate, and oral temperature). Incidence of treatment-emergent clinically significant abnormal findings in ECGs. • [Time Frame: Up to 3 weeks of monitoring] • 2. […] Area under the plasma concentration-time curve from time zero until the 24-hour time point (AUC0-24) • [Time Frame: Up to 3 weeks of testing] • 5. Area under the plasma concentration-time curve from time zero until last quantifiable time point (AUC0-last) • [Time Frame: Up to 3 weeks of testing] • 6. Area under the plasma concentration-time curve from time zero to infinity (AUC0-inf) • [Time Frame: Up to 3 weeks of testing] • 7. […] Apparent volume of distribution (Vd/F) • [Time Frame: Up to 3 weeks of testing] • 10. Terminal disposition rate constant (Lz) • [Time Frame: Up to 3 weeks of testing] • 11.
Four healthy SAD cohorts were evaluated at doses of 200, 400, 700, and 1000 mg, and four healthy MAD cohorts received 200 to 600 mg total daily doses for 14 days at QD or BID dosing (100 mg BID, 200 mg BID, 300 mg BID, and 400 mg QD). In the food effect (FE) cohort, 10 healthy subjects received 400 mg of Compound 1 QD with and without food.

[3] = human, plasma, oral, HV (N = 6), single dose 700 mg, geometric mean (geometric CV)

## O=C([C@H](CO)c1ccccc1)N1CC2=C(C1)CN(S(=O)(=O)c1cnc3c(c1)OCCO3)C2 (single isomer, unassigned) [Compound 1]
[1]; Cell Assay of Example 4
  EC50: < 500 nM
[1]; human RBCs, 3 hr, individual replicates 1-4
  Max − Min (%): <150% and <100% and <50%
[1]; human RBCs, 3 hr, mean of replicates
  Mean maximum activation increase (Max − Min): <100%
[2]; food effect cohort, 400 mg
  exposure under fed/fasted conditions: similar
[2]; healthy subject studies
  PK linearity and time dependence: linear and time-independent PK
[2]; healthy subjects, 14 days of dosing
  observed clearance on day 1 and day 14: unchanged
[2]; human, plasma, oral, 700 mg, HV (N = 6), single dose 700 mg, geometric mean (geometric CV), read-out: t1/2 (converted)
  half-life: 13.3 h
[2]; human, plasma, oral, biphasic PK profile, read-out: terminal half-life
  half-life: 12 to 14 h
[2]; human, plasma, oral, healthy volunteers, single doses up to 700 mg, read-out: T1/2
  half-life: 11 to 15 h
[2]; human, plasma, oral, HS and SCD subjects similar, read-out: AUC0-24
  AUC(0-t): ~7000 ng·h/mL
[2]; human, plasma, oral, HS and SCD subjects similar, read-out: T½
  half-life: 10 to 13 h
[2]; [3]
  AUC(0-inf): 7000 ng·h/mL
  Cmax: 2200 ng/mL
[2]; human, plasma, oral, HV (N = 6), single dose 700 mg, median [min, max]
  Tmax: 0.5 h
